{"source": "patent US9440966B2", "about": "“Compounds for treatment of metabolic syndrome” (SJT MOLECULAR RESEARCH, S.L., priority 2011, dated 2016)", "key": {"[1]": {"system": "SHR hypertensive rats", "assay": "Plasma cholesterol levels test in SHR hypertensive rats", "format": "in vivo, Male SHR", "details": "25 days of treatment (15 mg/Kg) oral, effect more pronounced for 5a and 7a", "protocol": "(§1) Distinct rat groups were orally treated, once a day, with 5 mg/kg of compounds 4a or 5a or 6a during the first 4 days, 10 mg/kg during the next 4 days and 15 mg/kg until the end of the treatment period or vehicle (control) for the same days. Similarly, another rat group received metformin (MET) (reference drug used for lowering glucose serum levels) in a 300 mg/kg dose, orally, from day 1 to the end of the treatment. Plasma cholesterol levels were measured in triplicate 12 hours after drug administration by the cholesterol oxidase/peroxidase method (BioSystems S.A, Barcelona, Spain). Blood samples were obtained by femoral vein punction. This method was chosen because of its noninvasive character, enabling daily measurements with the same rats throughout the entire treatment.\n(§2) Male SHR were provided by Charles River Laboratories (USA). Until the experiments were carried out, the animals have had free access to feed and water. The room temperature was kept at 22±2° C. and the light/dark cycle was of 12 hours. All procedures were submitted to the Animal Experimentation Ethics Committee.\nas §1, with “metformin” for “metformin (MET)”, “Blood pressure was” for “Plasma cholesterol levels were”, “4” for “12”, “administration in warmed warmed, restrained, conscious rats” for “administration”, “tail-cuff” for “cholesterol oxidase/peroxidase”, “with a computerized oscillometric system recorder (Nyprem, Cibertec).” for “(BioSystems S.A, Barcelona, Spain). Blood samples were obtained by femoral vein punction.”"}, "[2]": {"assay": "Body weight in SHR hypertensive rats", "format": "in vivo, Male SHR", "details": "oral once a day 5, 10 then 15 mg/kg", "protocol": "as §2\nDistinct rat groups were orally treated, once a day, with 5 mg/kg of compound 5a during the first 4 days, 10 mg/kg during the next 4 days and 15 mg/kg until the end of the treatment period or vehicle (control) for the same days. Similarly, another rat group received metformin (reference drug used for lowering glucose serum levels) in a 300 mg/kg dose, orally, from day 1 to the end of the treatment. Rats were weighted in a CHYO MK2000B precision weight chamber."}, "[3]": {"system": "Drosophila melanogaster (Oregon-R strain)", "assay": "Toxicology study: larva-to-adult viability and development time", "details": "in vivo", "excerpt": "The purpose of this study was to test and compare the potential toxic effects of compounds 5a, 6a and 7a on the larva-to-adult viability and development time in a Drosophila melanogaster (Oregon-R) flies. These studies have a relevant predictive role with the aim to anticipate possible adverse toxicological effects that may happen during preclinical studies with animal, preferably mammals. In addition, the data provided are highly quantitative.\nDrosophila melanogaster (Oregon-R) flies were obtained by the University of the Balearic Islands (Spain). […] The larvae were seeded on standard food supplemented with the appropriate dose of compounds tested. Each compound was tested at 1, 10, 100, 1000 and 2000 μg/ml dissolved in standard food.\nFly adults were transferred from the serial transfer system to bottles with fresh food for 24 h. Adults 5 days old were placed on egg collecting devices (layers) containing a mixture of agar, water, acetic acid, and ethyl alcohol, with a drop of active yeast on it. Every 2 h., the layer glasses were changed, in this way, the eggs of a glass have similar age, with a maximum difference of 2 h. among them. The glasses of the layers were kept at 25° C. for at least 22 h. in Petri dishes until larvae hatched. Fifty larvae were picked with a lancet under a stereoscopic microscope and were seeded into 10×2 cm vials with 5 ml food. Vials were supplemented with 4a, 5a and 7a at 1, 10 and 100 μg/ml. As positive control we used cupric acetate (toxic) at 350 μg/ml.\nThe number of adult flies which emerged from each vial was counted daily until the exhaustion of the culture. The parameters studied were the larvae-to-adult viability (V) and development time.\nViability is expressed as V=NA/NL, where NL is the input number of larvae ([…] in our case) and NA the output number of adults emerging from these NL larvae. Development time was measured in days by the formula DT=ΣNidi/ΣNi where Ni is the number of flies emerging on the day di after the larvae were placed in the medium.\nThe data are expressed as the mean±SEM values from 3 independent experiments involving triplicate vials at the number of flies indicated."}, "[4]": {"system": "female Swiss mice", "assay": "Acute oral toxicology study in a mice model", "format": "in vivo", "details": "oral 2000 mg/kg single dose, observation for 14 days", "protocol": "The experiments were conducted using female Swiss mice (20-30 g), housed under a 12-h light-dark cycle, with controlled humidity (60-80%), and temperature (22±1° C.). Food and water were freely available to the mice.\nFemale mice (n=6) were orally (2000 mg/kg) administered with a single dose of 4a, 5a, and 7a for the observation of acute signs of toxicity until 14 days. […] The observations comprised the behavior and manifestations of the toxic symptoms, and were carried out according to the Guidelines of the Organization for Economic Cooperation and Development (OECD, 2008).\nAll compounds were dissolved in sterile saline and were administered by oral gavage to mice based in the weight, for example 20 g received 20 μL.\nThe data are expressed as mean±S.E.M. of experiments. Statistical significance was determined through one-way analysis of variances (ANOVA), followed by either Newman-Keuls test. A p<0.05 was considered statistically significant. Graphs were drawn and statistical analysis was carried out using GraphPad Prism version 5.00 for Windows (GraphPad Software, San Diego, Calif., USA)."}}}
{"compound": "COc1ccc(-c2nc(C(=O)NCCCN)cc3c2[nH]c2ccccc23)cc1", "note": "[Compound 5a, N(-propylamine)-1-benzosubstituted-β-carboline-3-carboxamide]", "values": [{"measurement": "plasma cholesterol levels", "setting": "[1]", "value": "inhibition of plasma cholesterol levels"}, {"measurement": "SHR body weight compared to control untreated rats", "setting": "[2]", "value": "statistically significant effect in lowering SHR body weight"}, {"measurement": "larvae-to-adult viability and development time", "setting": "[3]", "value": "not affected"}, {"measurement": "mortality or behavioral disorders (acute signs of toxicity)", "setting": "[4]", "value": "did not produce mortality or any behavioral disorders"}]}
